Patent US10188627B2, “PPAR agonists, compounds, pharmaceutical compositions, and methods of use thereof” (Mitobridge, Inc., priority 2014, dated 2019)

How the values were obtained:
[1] = Pharmacokinetic screening, iv; format: in vivo; settings: CD-1 mice, 3 mg/kg iv
[2] = target: Human PPARδ LBD (Homo sapiens (Human), UniProt Q03181); assay: PPAR delta transactivation (PPARδ Activity Screen, GAL4-PPARδ LBD luciferase reporter in CV-1 cells); format: cell-based
Experimental: Cell Culture and Transfection:
CV-1 cells were grown in DMEM+10% charcoal stripped FCS. Cells were seeded into 384-well plates the day before transfection to give a confluency of 50-80% at transfection. A total of […] containing 0.64 micrograms pCMX-PPARDelta LBD, 0.1 micrograms pCMXβGal, 0.08 micrograms pGLMH2004 reporter and 0.02 micrograms pCMX empty vector was transfected per well using FuGene transfection reagent according to the manufacturer's instructions (Roche). Cells were allowed to express protein for 48 h followed by addition of compound.
Human PPARδ was used to PCR amplify the PPARδ LBD. […] Ensuing fusions were verified by sequencing.
Compounds: All compounds were dissolved in DMSO and diluted 1:1000 upon addition to the cells. Compounds were tested in quadruple in concentrations ranging from 0.001 to 100 μM. Cells were treated with compound for 24 h followed by luciferase assay. Each compound was tested in at least two separate experiments.
Statistical Methods: The activity of a compound is calculated as fold induction compared to an untreated sample. For each compound the efficacy (maximal activity) is given as a relative activity compared to GW501516, a PPARδ agonist. […] EC50 values were calculated via non-linear regression using GraphPad PRISM (GraphPad Software, San Diego, Calif.).

[3] = system: C57BL6J mice, thermal injury to the TA; assay: Muscle regeneration after freeze burn (thermal) injury to the TA, oral GW501516; format: in vivo
[4] = system: FGF1a promoter; assay: Luciferase reporter assay of FGF1a promoter co-transfected with PPARδ; format: cell-based; settings: PPARδ with or without ligand

Chain of Human PPARδ LBD (Q03181 128-441 limits assumed): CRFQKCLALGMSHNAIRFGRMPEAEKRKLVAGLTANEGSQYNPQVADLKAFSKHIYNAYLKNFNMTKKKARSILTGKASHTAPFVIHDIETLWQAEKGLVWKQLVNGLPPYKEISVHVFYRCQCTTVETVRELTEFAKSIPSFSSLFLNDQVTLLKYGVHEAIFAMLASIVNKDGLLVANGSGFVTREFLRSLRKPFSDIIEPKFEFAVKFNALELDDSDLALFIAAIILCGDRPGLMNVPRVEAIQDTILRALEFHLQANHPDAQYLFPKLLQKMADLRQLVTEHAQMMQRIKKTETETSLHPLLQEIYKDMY

Structure (SMILES) | Mice_PK_IV_AUC (0-inf) [1] | Mice_PK_IV_Cl [1] | other results
CN(Cc1ccccc1OCCC[C@H]1CC1C(=O)O)C(=O)c1ccc(-c2ccco2)cc1 (single isomer, unassigned) [Compound 8u, (1R*,2S*)-2-(3-(2-((4-(furan-2-yl)-N-methylbenzamido)methyl)phenoxy)propyl) cyclopropane-1-carboxylic acid] | 30142.00 ng·h/mL | 1.70 mL/min/kg | 
CN(Cc1ccccc1OCCC[C@H]1C[C@H]1C(=O)O)C(=O)c1ccc(-c2ccco2)cc1 (single isomer, unassigned) [Compound 8w] |  | 1.70 mL/min/kg | 
CN(Cc1ccccc1OCCC[C@@H]1C[C@@H]1C(=O)O)C(=O)c1ccc(-c2ccco2)cc1 (single isomer, unassigned) [Compound 8x] |  | 1.90 mL/min/kg | 
Cc1cc2cc(C(=O)N(C)Cc3ccccc3OCCCCCC(=O)O)ccc2o1 [Comparator Cmpd. 3, reference compound] | [AUC (0-inf) = 1788.0 ng * hr/ml] | Mice_PK_IV_Cl = 27.95 ml/min/kg | 
C/C(=C\COc1ccc(C(F)(F)F)cc1CN(C)C(=O)c1ccc(-c2ccco2)cc1)CCC(=O)O [Compound 8aa, (E)-6-(2-((4-(furan-2-yl)-N-methylbenzamido)methyl)-4-(trifluoromethyl)phenoxy)-4-methylhex-4-enoic acid] |  |  | EC50 ([2]; CV-1 cells, 24 h): 0.683 µM
C/C(=C\COc1ccc(C2CC2)cc1CN(C)C(=O)c1ccc(-c2ccco2)cc1)CCC(=O)O [Compound 8bb, (E)-6-(4-cyclopropyl-2-((4-(furan-2-yl)-N-methylbenzamido)methyl)phenoxy)-4-methylhex-4-enoic acid] |  |  | inhibition at 10 µM ([2]; CV-1, @ 10 uM): 58%
C/C(=C\COc1ccccc1CN(C)C(=O)c1ccc(-c2ccco2)c(F)c1)CCC(=O)O [Compound 8c, (E)-6-(2-((3-fluoro-4-(furan-2-yl)-N-methylbenzamido)methyl)phenoxy)-4-methylhex-4-enoic acid] | 1459.00 ng·h/mL | 34.30 mL/min/kg | 
CN(Cc1ccccc1OCCC/C=C/C(=O)O)C(=O)c1ccc(-c2ccco2)cc1 [Compound 8cc, (E)-6-(2-((4-(furan-2-yl)-N-methylbenzamido)methyl)phenoxy)hex-2-enoic acid] | 748.00 ng·h/mL | 66.87 mL/min/kg | 
C/C(=C\COc1ccccc1CN(C)C(=O)c1ccc(-c2ccco2)c(Cl)c1)CCC(=O)O [Compound 8d, (E)-6-(2-((3-chloro-4-(furan-2-yl)-N-methylbenzamido)methyl)phenoxy)-4-methylhex-4-enoic acid] | 1443.00 ng·h/mL | 34.65 mL/min/kg | 
C/C(=C\COc1ccccc1CN(C)C(=O)c1ccc(-c2ccc(C)o2)cc1)CCC(=O)O [Compound 8e, (E)-4-methyl-6-(2-((N-methyl-4-(5-methylfuran-2-yl)benzamido)methyl)phenoxy)hex-4-enoic acid] | 2166.00 ng·h/mL | 23.10 mL/min/kg | 
C/C(=C\COc1ccccc1CN(C)C(=O)c1ccc2oc(C)cc2c1)CCC(=O)O [Compound 8f, (E)-6-(2-((N,2-dimethylbenzofuran-5-carboxamido)methyl)phenoxy)-4-methylhex-4-enoic acid] |  | 40.02 mL/min/kg | 
C/C(=C\COc1ccc(F)cc1CN(C)C(=O)c1ccc(-c2ccco2)cc1)CCC(=O)O [Compound 8g, (E)-6-(4-fluoro-2-((4-(furan-2-yl)-N-methylbenzamido)methyl)phenoxy)-4-methylhex-4-enoic acid] | 2195.00 ng·h/mL | 23.00 mL/min/kg | 
CC(CCOc1ccccc1CN(C)C(=O)c1ccc(-c2ccco2)cc1)CCC(=O)O (centres unmarked) [Compound 8h, 6-(2-((4-(furan-2-yl)-N-methylbenzamido)methyl)phenoxy)-4-methylhexanoic acid] | 11843.00 ng·h/mL | 4.20 mL/min/kg | 
C/C(=C\C(=O)O)CCCOc1ccccc1CN(C)C(=O)c1ccc(-c2ccco2)cc1 [Compound 8i, (E)-6-(2-((4-(furan-2-yl)-N-methylbenzamido)methyl)phenoxy)-3-methylhex-2-enoic acid] | 4691.00 ng·h/mL | 10.65 mL/min/kg | 
C/C(=C\CCCOc1ccccc1CN(C)C(=O)c1ccc(-c2ccco2)cc1)C(=O)O [Compound 8k, (E)-6-(2-((4-(furan-2-yl)-N-methylbenzamido)methyl)phenoxy)-2-methylhex-2-enoic acid] | 12804.00 ng·h/mL | 3.92 mL/min/kg | 
CN(Cc1ccccc1/C=C/CCCCC(=O)O)C(=O)c1ccc(-c2ccco2)cc1 [Compound 8l, (E)-7-(2-((4-(furan-2-yl)-N-methylbenzamido)methyl)phenyl)hept-6-enoic acid] | 5161.00 ng·h/mL | 9.68 mL/min/kg | 
C/C(=C\COc1ccc(C)cc1CN(C)C(=O)c1ccc(-c2ccco2)cc1)CCC(=O)O [Compound 8n, (E)-6-(2-((4-(furan-2-yl)-N-methylbenzamido)methyl)-4-methylphenoxy)-4-methylhex-4-enoic acid] |  | 5.10 mL/min/kg | 
CC(CCCCOc1ccccc1CN(C)C(=O)c1ccc(-c2ccco2)cc1)C(=O)O (centres unmarked) [Compound 8o, 6-(2-((4-(furan-2-yl)-N-methylbenzamido)methyl)phenoxy)-2-methylhexanoic acid] | 11397.00 ng·h/mL | 2.78 mL/min/kg | 
CN(Cc1ccccc1OCc1cccc(CCC(=O)O)c1)C(=O)c1ccc(-c2ccco2)cc1 [Compound 8p, 3-(3-((2-((4-(furan-2-yl)-N-methylbenzamido)methyl)phenoxy)methyl)phenyl)propanoic acid] | 288.90 ng·h/mL | 173.05 mL/min/kg | 
CN(Cc1ccccc1OCc1cccc(CC(=O)O)c1)C(=O)c1ccc(-c2ccco2)cc1 [Compound 8q, 2-(3-((2-((4-(furan-2-yl)-N-methylbenzamido)methyl)phenoxy)methyl)phenyl)acetic acid] | 622.50 ng·h/mL | 80.32 mL/min/kg | 
CN(Cc1ccccc1OCCCCC(C)(C)C(=O)O)C(=O)c1ccc(-c2ccco2)cc1 [Compound 8s, 6-(2-((4-(furan-2-yl)-N-methylbenzamido)methyl)phenoxy)-2,2-dimethylhexanoic acid] | 48454.90 ng·h/mL | 1.03 mL/min/kg | 
CN(Cc1ccccc1OCCCC1CC1C(=O)O)C(=O)c1ccc(-c2ccco2)cc1 (centres unmarked) [Compound 8t, 2-(3-(2-((4-(furan-2-yl)-N-methylbenzamido)methyl)phenoxy)propyl) cyclopropane-1-carboxylic acid] |  | 3.08 mL/min/kg | 
Cc1cc(SCc2sc(-c3ccc(C(F)(F)F)cc3)nc2C)ccc1OCC(=O)O [GW501516] |  |  | Evans Blue dye uptake, proportion of muscle CSA stained ([3]; 5 mg/kg orally, 4 days prior to and 5 days after injury, 5 days after the injury): 4.9%; expression of inflammatory marker genes by QPCR ([3]; 3 days after the injury): significantly reduced; reduction in the proportion of stained area ([3]; 5 days after the injury, versus vehicle): 34.7%; PPARδ target genes (PDK4, CPT1b, and catalase) in TA by QPCR ([3]; 9 day treatment): Up-regulation; myoblast proliferation (BrdU positive nuclei) ([3]; BrdU injection at 48 hours after the injury): promoted myoblast proliferation; number of quiescent satellite cells ([3]; after 9 days or 4 weeks of ligand treatment): an increase in the number of quiescent satellite cells was not observed; induction of FGF1a (luciferase reporter) [4]: induction of FGF1a
